According to patent publication US20100324124A1, “Compositions and methods relating to DNA-based particles” (Massachusetts Institute of Technology, priority 2009, published 2010):

Test system: B16F10 melanoma tumors
Assay: In vivo treatment of established B16F10 melanoma tumors, single intratumoral injection
Details: 100 μg DOX, C57B1/6 mice
Experimental: FIG. 7 illustrates in vivo tumor regression mediated by doxobucin-loaded nanoparticles. 5×10^6 Gaussia-luciferase-expressing B16F10 melanoma cells were subcutaneously injected into left flank of C57B1/6 mice. Tumors were allowed to establish and grow to ˜0.5 cm in diameter, and mice were divided randomly into groups of 8 per condition: group 1, no treatment (PBS); group 2, treated with free doxorubicin (100 μg DOX); group 3, treated with doxorubicin-imbedded liposome (100 μg DOX); and group 4, treated with doxorubicin-imbedded nucleic acid nanoparticle (100 μg DOX). Treatments were administered by intratumoral injection in 250 μl volumes. Tumors were measured every day with calipers in two dimensions. Tumor growth curves are plotted as the mean tumor area±standard deviation. Shown at bottom left is bioluminescence imaging of a mouse with an untreated tumor (left) and a mouse that received an injection of doxorubicin-imbedded nucleic acid nanoparticles (right). Animals were sacrificed after the last measurement and the tumors were excised and fixed for histology section. […]

COc1cccc2c1C(=O)c1c(O)c3c(c(O)c1C2=O)C[C@@](O)(C(=O)CO)C[C@@H]3O[C@H]1C[C@H](N)[C@H](O)[C@H](C)O1 [free doxorubicin, Doxorubicin]
effect on tumor growth relative to saline-injected control animals: no effect on tumor growth
